Converted amounts (≈) assume the structure as drawn.
Assays:
Assay in all cases: Antifungal activity, microtiter MIC
Assay type in all cases: cell-based
Candida rugosa = Candida rugosa strain 94-10, RPMI 1640, 35° C., 24–48 hours
Protocol: (§1) Antifungal activity for the compound of this invention was established by evaluation against several strains of fungi. Briefly, the following procedure was used to evaluate such activity. A 96 well microtiter plate was filled (50 μL/well) with RPMI 1640. The compounds to be evaluated were placed in appropriate wells and serial diluted in successive wells to provide several dilutions. The concentrations ranged from […]. An adjusted inoculum of fungi (50 μL) was added to each well and plates were incubated at 35° C. for 24–48 hours.

Candida pseudotropicalis = Candida pseudotropicalis strain ATCC 28838, RPMI 1640, 35° C., 24–48 hours
Protocol: as §1

Candida zeylanoided = Candida zeylanoided strain 94-15; RPMI 1640, 35° C., 24–48 hours
Protocol: as §1

Candida lusitaniae = Candida lusitaniae strain 94-3, RPMI 1640, 35° C., 24–48 hours
Protocol: as §1

Candida krussii = Candida krussii strain 94-2; RPMI 1640, 35° C., 24–48 hours
Protocol: as §1

Aspergillus fumigatus = Aspergillus fumigatus strain ATCC 26933, RPMI 1640, 35° C., 24–48 hours
Protocol: as §1

Aspergillus niger = Aspergillus niger strain ATCC 16404, RPMI 1640, 35° C., 24–48 hours
Protocol: as §1

Candida tropicalis = conditions: RPMI 1640, 35° C., 24–48 hours
Protocol: as §1

Candida albicans = conditions: RPMI 1640, 35° C., 24–48 hours; for MIC: Candida albicans
Protocol: as §1

Candida parapsilosis = conditions: RPMI 1640, 35° C., 24–48 hours; for MIC: Lodderomyces parapsilosis
Protocol: as §1

Aspergillus flavusr = Aspergillus flavusr strain S506; RPMI 1640, 35° C., 24–48 hours
Protocol: as §1

[1] = Candida tropicalis strain 94-13
[2] = Candida tropicalis strain 94-14
[3] = Candida albicans strain ATCC 90028
[4] = Candida parapsilosis strain 94-8
[5] = Candida parapsilosis strain 94-9
[6] = Candida parapsilosis strain ATCC 90018

Row | SMILES | Antifungal Activity (MIC) (Candida rugosa) [µg/mL] | Antifungal Activity (MIC) (Candida pseudotropicalis) | Antifungal Activity (MIC) (Candida zeylanoided) [µg/mL] | Antifungal Activity (MIC) (Candida lusitaniae) [µg/mL] | Antifungal Activity (MIC) (Candida krussii) [µg/mL] | Antifungal Activity (MIC) (Aspergillus fumigatus) [µg/mL] | Antifungal Activity (MIC) (Aspergillus niger) [µg/mL] | Antifungal Activity (MIC) (Candida tropicalis; [1]) [µg/mL] | Antifungal Activity (MIC) (Candida tropicalis; [2]) [µg/mL] | Antifungal Activity (MIC) (Candida albicans; Candida albicans strain 94-1) [µg/mL] | Antifungal Activity (MIC) (Candida albicans; Candida albicans strain 1063) | Antifungal Activity (MIC) (Candida albicans; Candida albicans strain 1117) | Antifungal Activity (MIC) (Candida albicans; [3]) [µg/mL] | Antifungal Activity (MIC) (Candida parapsilosis; [4]) | Antifungal Activity (MIC) (Candida parapsilosis; [5]) [µg/mL] | Antifungal Activity (MIC) (Candida parapsilosis; [6]) | Antifungal Activity (MIC) (Aspergillus flavusr) [µg/mL] | other results
1 | C[C@@H]1[C@H](O)[C@@H](C)/C=C/C=C/CC/C=C/C=C/C=C/C=C/C(O[C@H]2O[C@H](C)[C@@H](O)[C@H](N)[C@@H]2O)CC2O[C@](O)(CC(O)C(O)CCC(O)CC(O)CC(O)CC(=O)O[C@H]1C)CC(O)C2C(=O)O (stereo partly drawn) [Nystatin] | 1 | 1 µg/mL | 1 | 1 | 1 | 2 | 1 | 1 | 2 | 2 | 1 µg/mL | 1 µg/mL | 1 | 2 µg/mL | 1 | 2 µg/mL | 2 | –
2 | C[C@@H]1[C@H](O)[C@@H](C)/C=C/C=C/C=C/C=C/C=C/C=C/C=C/[C@H](O[C@@H]2O[C@H](C)[C@@H](O)[C@H](N)[C@@H]2O)C[C@@H]2O[C@](O)(C[C@@H](O)C[C@@H](O)[C@H](O)CC[C@@H](O)C[C@@H](O)CC(=O)O[C@H]1C)C[C@H](O)[C@H]2C(=O)O [Amphotericin B] | 0.25 | ≦0.06 μg/mL | 0.25 | 0.125 | 0.125 | 0.25 | 0.25 | 0.125 | 0.125 | 0.125 | ≦0.06 μg/mL | ≦0.06 μg/mL | 0.125 | ≦0.06 μg/mL | 0.125 | ≦0.06 μg/mL | 0.50 | –
3 | COC1CC2CCC(C)C(=O)C(O)(O2)C(=O)N2CCCCC2C(=O)OC(C(C)CC2CCC(OCCO)C(OC)C2)CC(=O)C(C)/C=C(\C)C(O)C(OC)C(=O)C(C)CC(C)/C=C/C=C/C=C/1C (stereo not drawn) [Compound, 1,17-dihydroxy-11-{2-[4-(2-hydroxy-ethoxy)-3-methoxy-cyclohexyl]-1methyl-ethyl}-18,29-dimethoxy-14,16,20,22,28,34-hexamethyl-10,36-dioxa-3-aza-tricyclo[29.4.1.0˜3,8]hexatriaconta-15,23,25,27-tetraen-2,9,13,19,35-pentaone] | – | – | – | – | – | – | – | 0.125 | – | – | – | – | – | 0.125 µg/mL | – | – | – | MIC (Candida rugosa; Diutina rugosa): 0.25 µg/mL (≈ 0.261 µM); MIC (Candida pseudotropicalis; Kluyveromyces marxianus, ATCC28838): ≤ 0.06 µg/mL; MIC (Candida zeylanoided): ≤ 0.06 µg/mL; MIC (Candida lusitaniae; Clavispora lusitaniae): ≤ 0.06 µg/mL; MIC (Candida krussii): 0.5 µg/mL (≈ 0.522 µM); MIC (Aspergillus fumigatus; ATCC26933): 32 µg/mL (≈ 33.4 µM); MIC (Aspergillus niger; ATCC16404): 8 µg/mL (≈ 8.35 µM); MIC (Candida tropicalis; [2]): 0.125 µg/mL (≈ 0.13 µM); MIC (Candida albicans; ATCC90028, Candida albicans strain ATCC 90028): 0.125 µg/mL (≈ 0.13 µM); MIC (Candida albicans; Candida albicans strain 94-1): 0.25 µg/mL (≈ 0.261 µM); MIC (Candida albicans; Candida albicans strain 1063): ≤ 0.06 µg/mL; MIC (Candida albicans; Candida albicans strain 1117): 0.125 µg/mL (≈ 0.13 µM); MIC (Candida parapsilosis; ATCC90018, Candida parapsilosis strain ATCC 90018): 0.25 µg/mL (≈ 0.261 µM); MIC (Candida parapsilosis; [5]): 0.125 µg/mL (≈ 0.13 µM); MIC (Aspergillus flavusr): 8 µg/mL (≈ 8.35 µM)

Reference: patent publication US7241771B2, “Oxepane isomer of 42-O-(2-hydroxy)ethyl-rapamycin” (Wyeth, priority 2005, dated 2007)
